# Test system: 299254-011-R-J1-PDC complex spheroid viability
# Assay: Anticancer human tumor 299254-011-R-J1-PDC patient-derived melanoma cell line growth inhibition [POLQ]
# Settings: for IC50: curve of first compound; for viability, T/C: stronger effect = lower value
# How it was run: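 Growth inhibition in 3D: complex spheroids (tumor PDC, HUVEC, MSC) treated with POLQ inhibitor combinations; where Cmax unknown, highest tested concentration 10 microM, except SN-38 at 1 microM.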
# [1] = second compound 0.0316 µM, first compound 0.00316 µM
# [2] = second compound 0.0316 µM, first compound 0.01 µM
# [3] = second compound 0.0316 µM, first compound 0.0316 µM
# [4] = second compound 0.0316 µM, first compound 0.1 µM
# [5] = second compound 0.0316 µM, first compound 0.316 µM
# [6] = second compound 0.0316 µM, first compound 1 µM
# [7] = second compound 0.1 µM, first compound 0.00316 µM
# [8] = second compound 0.1 µM, first compound 0.01 µM
# [9] = second compound 0.1 µM, first compound 0.0316 µM
# [10] = second compound 0.1 µM, first compound 0.1 µM
# [11] = second compound 0.1 µM, first compound 0.316 µM
# [12] = second compound 0.1 µM, first compound 1 µM
# [13] = second compound 0.316 µM, first compound 0.00316 µM
# [14] = second compound 0.316 µM, first compound 0.01 µM
# [15] = second compound 0.316 µM, first compound 0.0316 µM
# [16] = second compound 0.316 µM, first compound 0.1 µM
# [17] = second compound 0.316 µM, first compound 0.316 µM
# [18] = second compound 0.316 µM, first compound 1 µM
# [19] = second compound 1 µM, first compound 0.00316 µM
# [20] = second compound 1 µM, first compound 0.01 µM
# [21] = second compound 1 µM, first compound 0.0316 µM
# [22] = second compound 1 µM, first compound 0.1 µM
# [23] = second compound 1 µM, first compound 0.316 µM
# [24] = second compound 1 µM, first compound 1 µM
# [25] = second compound 3.16 µM, first compound 0.00316 µM
# [26] = second compound 3.16 µM, first compound 0.01 µM
# [27] = second compound 3.16 µM, first compound 0.0316 µM
# [28] = second compound 3.16 µM, first compound 0.1 µM
# [29] = second compound 3.16 µM, first compound 0.316 µM
# [30] = second compound 3.16 µM, first compound 1 µM
# [31] = second compound 10 µM, first compound 0.00316 µM
# [32] = second compound 10 µM, first compound 0.01 µM
# [33] = second compound 10 µM, first compound 0.0316 µM
# [34] = second compound 10 µM, first compound 0.1 µM
# [35] = second compound 10 µM, first compound 0.316 µM
# [36] = second compound 10 µM, first compound 1 µM
# [37] = second compound 0.0316 µM, first compound 3.16 µM
# [38] = second compound 0.0316 µM, first compound 10 µM
# [39] = second compound 0.1 µM, first compound 3.16 µM
# [40] = second compound 0.1 µM, first compound 10 µM
# [41] = second compound 0.316 µM, first compound 3.16 µM
# [42] = second compound 0.316 µM, first compound 10 µM
# [43] = second compound 1 µM, first compound 3.16 µM
# [44] = second compound 1 µM, first compound 10 µM
# [45] = second compound 3.16 µM, first compound 3.16 µM
# [46] = second compound 3.16 µM, first compound 10 µM
# [47] = second compound 10 µM, first compound 3.16 µM
# [48] = second compound 10 µM, first compound 10 µM
# 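Note: spheroids exposed to drugs for one week before measurement.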
# 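Throughout, for viability, T/C: percent viability relative to DMSO vehicle control taken as 100%.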
compound,measurement,setting,value
C=CCn1c(=O)c2cnc(Nc3ccc(N4CCN(C)CC4)cc3)nc2n1-c1cccc(C(C)(C)O)n1 + Nc1ccc(C#CCN(C(=O)Cc2ncc(C(F)(F)F)cc2C(F)(F)F)c2ccc(F)cc2)nn1,IC50,second compound 0.0316 µM,> 1000 nM
same,IC50,second compound 0.1 µM,> 1000 nM
same,IC50,second compound 0.316 µM,> 1000 nM
same,IC50,second compound 1 µM,> 1000 nM
same,IC50,second compound 3.16 µM,> 1000 nM
same,IC50,second compound 10 µM,> 1000 nM
same,"viability, T/C",[1],104%
same,"viability, T/C",[2],85%
same,"viability, T/C",[3],98.5%
same,"viability, T/C",[4],105%
same,"viability, T/C",[5],95.8%
same,"viability, T/C",[6],68.3%
same,"viability, T/C",[7],101%
same,"viability, T/C",[8],93.1%
same,"viability, T/C",[9],94.9%
same,"viability, T/C",[10],102%
same,"viability, T/C",[11],104%
same,"viability, T/C",[12],69.9%
same,"viability, T/C",[13],104%
same,"viability, T/C",[14],101%
same,"viability, T/C",[15],93.4%
same,"viability, T/C",[16],93.4%
same,"viability, T/C",[17],104%
same,"viability, T/C",[18],74.6%
same,"viability, T/C",[19],102%
same,"viability, T/C",[20],120%
same,"viability, T/C",[21],107%
same,"viability, T/C",[22],97.2%
same,"viability, T/C",[23],94.4%
same,"viability, T/C",[24],58%
same,"viability, T/C",[25],95.5%
same,"viability, T/C",[26],95.5%
same,"viability, T/C",[27],95.7%
same,"viability, T/C",[28],95.3%
same,"viability, T/C",[29],101%
same,"viability, T/C",[30],72.5%
same,"viability, T/C",[31],103%
same,"viability, T/C",[32],92%
same,"viability, T/C",[33],88.6%
same,"viability, T/C",[34],87.5%
same,"viability, T/C",[35],77.3%
same,"viability, T/C",[36],58.9%
CCCS(=O)(=O)Nc1ccc(F)c(C(=O)c2c[nH]c3ncc(-c4ccc(Cl)cc4)cc23)c1F + Nc1ccc(C#CCN(C(=O)Cc2ncc(C(F)(F)F)cc2C(F)(F)F)c2ccc(F)cc2)nn1,IC50,second compound 0.0316 µM,9620 nM
same,IC50,second compound 0.1 µM,9010 nM
same,IC50,second compound 0.316 µM,9950 nM
same,IC50,second compound 1 µM,8980 nM
same,IC50,second compound 3.16 µM,> 10000 nM
same,IC50,second compound 10 µM,> 10000 nM
same,"viability, T/C",[3],109%
same,"viability, T/C",[4],128%
same,"viability, T/C",[5],122%
same,"viability, T/C",[6],120%
same,"viability, T/C",[37],108%
same,"viability, T/C",[38],47.8%
same,"viability, T/C",[9],92.7%
same,"viability, T/C",[10],117%
same,"viability, T/C",[11],119%
same,"viability, T/C",[12],110%
same,"viability, T/C",[39],104%
same,"viability, T/C",[40],44.6%
same,"viability, T/C",[15],97.5%
same,"viability, T/C",[16],93.5%
same,"viability, T/C",[17],112%
same,"viability, T/C",[18],111%
same,"viability, T/C",[41],129%
same,"viability, T/C",[42],49.7%
same,"viability, T/C",[21],97.3%
same,"viability, T/C",[22],99.2%
same,"viability, T/C",[23],106%
same,"viability, T/C",[24],121%
same,"viability, T/C",[43],122%
same,"viability, T/C",[44],43.8%
same,"viability, T/C",[27],108%
same,"viability, T/C",[28],140%
same,"viability, T/C",[29],140%
same,"viability, T/C",[30],101%
same,"viability, T/C",[45],106%
same,"viability, T/C",[46],50.7%
same,"viability, T/C",[33],94.8%
same,"viability, T/C",[34],98.6%
same,"viability, T/C",[35],109%
same,"viability, T/C",[36],102%
same,"viability, T/C",[47],98.5%
same,"viability, T/C",[48],57%
CNCc1ccc(-c2[nH]c3cc(F)cc4c3c2CCNC4=O)cc1 + Nc1ccc(C#CCN(C(=O)Cc2ncc(C(F)(F)F)cc2C(F)(F)F)c2ccc(F)cc2)nn1,IC50,second compound 0.0316 µM,> 10000 nM
same,IC50,second compound 0.1 µM,> 10000 nM
same,IC50,second compound 0.316 µM,> 10000 nM
same,IC50,second compound 1 µM,> 10000 nM
same,IC50,second compound 3.16 µM,> 10000 nM
same,IC50,second compound 10 µM,> 10000 nM
same,"viability, T/C",[3],108%
same,"viability, T/C",[4],107%
same,"viability, T/C",[5],109%
same,"viability, T/C",[6],122%
same,"viability, T/C",[37],110%
same,"viability, T/C",[38],103%
same,"viability, T/C",[9],115%
same,"viability, T/C",[10],117%
same,"viability, T/C",[11],99.8%
same,"viability, T/C",[12],105%
same,"viability, T/C",[39],109%
same,"viability, T/C",[40],109%
same,"viability, T/C",[15],106%
same,"viability, T/C",[16],107%
same,"viability, T/C",[17],96.4%
same,"viability, T/C",[18],95.7%
same,"viability, T/C",[41],119%
same,"viability, T/C",[42],129%
same,"viability, T/C",[21],113%
same,"viability, T/C",[22],111%
same,"viability, T/C",[23],94.4%
same,"viability, T/C",[24],102%
same,"viability, T/C",[43],129%
same,"viability, T/C",[44],114%
same,"viability, T/C",[27],106%
same,"viability, T/C",[28],105%
same,"viability, T/C",[29],110%
same,"viability, T/C",[30],95.9%
same,"viability, T/C",[45],124%
same,"viability, T/C",[46],124%
same,"viability, T/C",[33],107%
same,"viability, T/C",[34],96.2%
same,"viability, T/C",[35],93.1%
same,"viability, T/C",[36],103%
same,"viability, T/C",[47],102%
same,"viability, T/C",[48],94.1%
COc1cccc(OCCCN)c1-c1cc(Nc2cnc(C#N)cn2)n[nH]1 + Nc1ccc(C#CCN(C(=O)Cc2ncc(C(F)(F)F)cc2C(F)(F)F)c2ccc(F)cc2)nn1,IC50,second compound 0.0316 µM,147 nM
same,IC50,second compound 0.1 µM,97.4 nM
same,IC50,second compound 0.316 µM,96.8 nM
same,IC50,second compound 1 µM,79.5 nM
same,IC50,second compound 3.16 µM,70.6 nM
same,IC50,second compound 10 µM,29.4 nM
same,"viability, T/C",[1],96.7%
same,"viability, T/C",[2],129%
same,"viability, T/C",[3],78.6%
same,"viability, T/C",[4],61.2%
same,"viability, T/C",[5],40.2%
same,"viability, T/C",[6],42.6%
same,"viability, T/C",[7],106%
same,"viability, T/C",[8],107%
same,"viability, T/C",[9],84.9%
same,"viability, T/C",[10],49.2%
same,"viability, T/C",[11],51.6%
same,"viability, T/C",[12],42.3%
same,"viability, T/C",[13],111%
same,"viability, T/C",[14],97.5%
same,"viability, T/C",[15],67%
same,"viability, T/C",[16],51.8%
same,"viability, T/C",[17],40%
same,"viability, T/C",[18],35.5%
same,"viability, T/C",[19],98.3%
same,"viability, T/C",[20],111%
same,"viability, T/C",[21],72.2%
same,"viability, T/C",[22],51.6%
same,"viability, T/C",[23],41.8%
same,"viability, T/C",[24],37.2%
same,"viability, T/C",[25],115%
same,"viability, T/C",[26],79.6%
same,"viability, T/C",[27],63.9%
same,"viability, T/C",[28],41.7%
same,"viability, T/C",[29],37%
same,"viability, T/C",[30],46.6%
same,"viability, T/C",[31],121%
same,"viability, T/C",[32],75.1%
same,"viability, T/C",[33],48.9%
same,"viability, T/C",[34],38%
same,"viability, T/C",[35],32.3%
same,"viability, T/C",[36],35.7%
